Experimental data published in patent US7399762B2, “Opioid receptor agonist compounds and their use in treatment of pain” (Research Triangle Institute, priority 2005, dated 2008).

Columns and labels:
Assay type in all cases: biochemical
[1] = biological target: T1, human delta opioid receptor (Homo sapiens, UniProt P41143); assay: [35S]GTP-γ-S binding stimulation, intrinsic activity at delta receptor; details: for intrinsic activity at the delta opioid receptor (in words): compared with DPDPE; for Emax: read-out: Agonist δ Emax (% DPDPE)
T1 construct: expressed in transfected cells; host or cells: CHO cells (membrane homogenates)
Procedure: (§1) Determination of intrinsic activity. Test compounds 2.8 and 2.11 were assayed for their ability to stimulate [35S]GTP-γ-S binding in CHO cell membrane homogenates expressing either the human mu or human delta opioid receptor. The compounds were assayed in triplicate at eight different concentrations. […] The membranes were incubated with one of eight concentrations of positive control or test compound, 0.1 nM [35S]GTP-γ-S and 10 μM GDP in a 50 mM HEPES buffer (pH 7.4) at room temperature for one hour, after which bound radioligand was separated from free via rapid vacuum filtration over GF-B filters using a Brandel Scientific (Gaithersburg, MD) 96-well harvester. Bound radioactivity was determined using a TopCount 12-detector instrument (Packard Instruments) using standard scintillation counting techniques. The data were normalized to samples containing vehicle (basal binding), and a three-parameter logistic curve fit to the data using Prism (version 3.0, GraphPad Software, Inc., San Diego, Calif.). The EC50 and upper asymptote (Emax) were calculated for each compound and the data reported as mean ±SEM.

[2] = biological target: T2, human kappa opioid receptor (Homo sapiens, UniProt P41145); assay: Apparent affinity (Ke): shift of U69,593 dose response curve in [35S]GTP-γ-S binding
T2 construct: expressed in transfected cells; host or cells: CHO cells (membrane homogenates)
Source text: Determination of apparent affinity (Ke). The ability of a single concentration of test compound to shift the U69,593 (full kappa opioid receptor agonist) dose response curve to the right was used to determine the apparent affinity (Ke) of the test compounds. Assay conditions and analysis of the data were identical to that detailed for the determination of intrinsic activity except that membrane homogenates from CHO cells expressing the human kappa opioid receptor were used, and a single, identical concentration of test compound was included with each assayed concentration of kappa agonist. […]

human mu opioid receptor = biological target: T3, human mu opioid receptor (Homo sapiens, UniProt P35372); assay: [35S]GTP-γ-S binding stimulation, intrinsic activity at mu receptor; details: for intrinsic activity at the mu opioid receptor (in words): compared with DAMGO
T3 construct: expressed in transfected cells; host or cells: CHO cells (membrane homogenates)
Procedure: as §1

T1 sequence (P41143 whole entry): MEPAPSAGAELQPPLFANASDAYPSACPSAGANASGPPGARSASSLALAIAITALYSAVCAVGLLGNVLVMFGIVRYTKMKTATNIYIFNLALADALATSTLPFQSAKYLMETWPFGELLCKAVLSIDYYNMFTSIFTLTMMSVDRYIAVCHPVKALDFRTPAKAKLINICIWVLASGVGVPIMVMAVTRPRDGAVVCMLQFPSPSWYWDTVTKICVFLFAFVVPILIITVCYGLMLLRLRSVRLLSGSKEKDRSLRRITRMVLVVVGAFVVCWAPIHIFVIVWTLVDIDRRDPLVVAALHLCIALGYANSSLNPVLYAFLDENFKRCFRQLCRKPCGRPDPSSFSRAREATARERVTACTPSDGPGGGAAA
T3 sequence (P35372 whole entry): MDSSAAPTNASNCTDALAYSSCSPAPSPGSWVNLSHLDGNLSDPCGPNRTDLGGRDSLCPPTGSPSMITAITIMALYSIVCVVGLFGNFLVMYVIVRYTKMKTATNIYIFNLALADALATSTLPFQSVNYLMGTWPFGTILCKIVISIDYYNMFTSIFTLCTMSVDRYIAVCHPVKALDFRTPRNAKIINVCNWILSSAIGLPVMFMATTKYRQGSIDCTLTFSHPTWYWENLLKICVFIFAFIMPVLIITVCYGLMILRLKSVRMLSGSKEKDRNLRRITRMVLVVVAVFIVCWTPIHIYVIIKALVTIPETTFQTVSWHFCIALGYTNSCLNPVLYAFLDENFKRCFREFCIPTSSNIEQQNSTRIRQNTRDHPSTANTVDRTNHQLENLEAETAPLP
T2 sequence (P41145 whole entry): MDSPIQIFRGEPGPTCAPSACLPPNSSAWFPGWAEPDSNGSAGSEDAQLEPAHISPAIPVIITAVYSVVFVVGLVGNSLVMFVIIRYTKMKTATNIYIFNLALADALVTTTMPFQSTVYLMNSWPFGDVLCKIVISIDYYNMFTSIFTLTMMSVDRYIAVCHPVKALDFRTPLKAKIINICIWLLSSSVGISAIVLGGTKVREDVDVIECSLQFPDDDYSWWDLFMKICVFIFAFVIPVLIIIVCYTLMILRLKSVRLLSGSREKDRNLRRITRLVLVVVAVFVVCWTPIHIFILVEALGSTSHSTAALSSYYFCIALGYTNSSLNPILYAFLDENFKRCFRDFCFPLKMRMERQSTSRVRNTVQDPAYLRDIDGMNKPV

SMILES: C[C@@H]1CN(CCCc2ccccc2)[C@H]2C[C@H](N)C[C@]1(c1cccc(O)c1)C2 [Compound 2.8, (−)-3-[(1 R,4S,5S,7R)-7-Amino-4-methyl-2-(3-phenylpropyl)-2-aza-bicyclo[3.3.1]non-5-yl]phenol]
- intrinsic activity at the delta opioid receptor (in words) [1]: potent full agonist
- Emax [1]: 101 ± 14%
- activity at the kappa opioid receptor (in words) [2]: good inhibitor
- intrinsic activity at the mu opioid receptor (in words) (human mu opioid receptor): partial agonist
- Emax (human mu opioid receptor; relative to Emax of DAMGO, mean ±SEM, read-out: Agonist μ Emax (% DAMGO)): 74 ± 12%

SMILES: CNC1CC2CC(c3cccc(O)c3)(C1)C(C)CN2CCCc1ccccc1 (centres unmarked) [Compound 2.11, 5-(3-Hydroxyphenyl)-4-methyl-7-methylamino-2-(3-phenylprop-1-yl)-2-azabicyclo[3.3.1]nononane]
- intrinsic activity at the delta opioid receptor (in words) [1]: partial agonist
- Emax [1]: 79.7 ± 7.7%
- activity at the kappa opioid receptor (in words) [2]: good inhibitor
- intrinsic activity at the mu opioid receptor (in words) (human mu opioid receptor): full agonist
- maximum stimulation of [35S]GTP-γ-S binding compared with DAMGO (t-test) (human mu opioid receptor; p>0.05): not statistically different

SMILES: C[C@@H](NC(=O)[C@@H](N)Cc1ccc(O)cc1)C(=O)NCC(=O)N(C)[C@@H](Cc1ccccc1)C(=O)NCCO [DAMGO, (D-Ala^2,MePhe^4,Gly-ol^5)enkephalin, reference compound]
- intrinsic activity at the mu opioid receptor (in words) (human mu opioid receptor): full agonist
